Laboratory results reported in US20060281763A1, “Carboxamide inhibitors of TGFbeta” (priority 2005, published 2006).

The compounds below were run against T1, TGFβ R1 (Homo sapiens, UniProt P36897) (assay: TGFβ R1 autophosphorylation protocol (33P-ATP, phosphocellulose filter plate)). Conditions: 10 uM ATP, 170 nM TGFβ R1, 20 minutes at room temperature, read-out: IC50 for Kinase Inhibition.
T1 sequence (P36897 34-503): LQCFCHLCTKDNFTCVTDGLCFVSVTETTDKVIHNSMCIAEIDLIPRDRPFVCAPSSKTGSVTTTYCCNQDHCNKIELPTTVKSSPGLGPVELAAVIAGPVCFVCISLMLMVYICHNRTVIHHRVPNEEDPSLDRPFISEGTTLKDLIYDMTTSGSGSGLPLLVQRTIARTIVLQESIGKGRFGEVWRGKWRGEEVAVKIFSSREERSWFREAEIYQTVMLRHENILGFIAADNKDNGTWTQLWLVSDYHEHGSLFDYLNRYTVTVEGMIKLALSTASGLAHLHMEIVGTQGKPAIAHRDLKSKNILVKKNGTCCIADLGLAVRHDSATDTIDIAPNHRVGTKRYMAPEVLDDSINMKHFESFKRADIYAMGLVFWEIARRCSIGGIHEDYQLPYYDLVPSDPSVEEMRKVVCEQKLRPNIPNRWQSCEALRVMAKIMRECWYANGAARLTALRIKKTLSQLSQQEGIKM
Type: biochemical
Outline: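 Radiometric autophosphorylation: 170 nM enzyme with compound (≤1% DMSO), 10 uM ATP plus γ-33P-ATP, […] in 20 mM MOPS pH 7, 20 min at room temperature. Reaction stopped on phosphocellulose filter, washed with H3PO4 and ethanol, counted by scintillation.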
For `COc1cnc(-c2cc(Cl)ccc2F)nc1Nc1ccncc1C(=O)NC1CN(C(=O)OC(C)(C)C)C1` [Compound 86, 3-({4-[2-(5-Chloro-2-fluoro-phenyl)-5-methoxy-pyrimidin-4-ylamino]-pyridine-3-carbonyl}-amino)-azetidine-1-carboxylic acid tert-butyl ester], the IC50 was 310 nM.
For `COc1cnc(-c2cc(Cl)ccc2F)nc1Nc1ccncc1C(=O)NCCNCC(C)(C)O` [Compound 112, 4-[2-(5-Chloro-2-fluoro-phenyl)-5-methoxy-pyrimidin-4-ylamino]-N-[2-(2-hydroxy-2-methyl-propylamino)-ethyl]-nicotinamide], the IC50 was 90 nM.
`COc1cnc(-c2cc(Cl)ccc2F)nc1Nc1ccncc1C(=O)NCCCNC(C)C` [Compound 131, 4-[2-(5-Chloro-2-fluoro-phenyl)-5-methoxy-pyrimidin-4-ylamino]-N-(3-isoopropyl-amino-propyl)-nicotinamide] gave an IC50 of 21 nM.
`COc1cnc(-c2cc(Cl)ccc2F)nc1Nc1ccncc1C(=O)NCCNC(=O)OC(C)(C)C` [Compound 32, [2-({4-[2-(5-Chloro-2-fluoro-phenyl)-5-methoxy-pyrimidin-4-ylamino]-pyridine-3-carbonyl}-amino)-ethyl]-carbamic acid tert-butyl ester] gave an IC50 of 560 nM.
In the case of `COc1cnc(-c2cc(Cl)ccc2F)nc1Nc1ccncc1C(=O)NOCC1CC1` [Compound 129, 4-[2-(5-Chloro-2-fluoro-phenyl)-5-methoxy-pyrimidin-4-ylamino]-N-cyclopropylmethoxy-nicotinamide], the IC50 is reported as 59 nM.
`COc1cnc(-c2cc(Cl)ccc2F)nc1Nc1ccncc1C(=O)NC1CCN(CCC2O[C@H](CO)[C@@H](O)[C@H](O)[C@H]2O)CC1` (some centres unmarked) [Compound 137, 4-[2-(5-Chloro-2-fluoro-phenyl)-5-methoxy-pyrimidin-4-ylamino]-N-{1-[2-(3,4,5-trihydroxy-6-hydroxymethyl-tetrahydro-pyran-2-yl)-ethyl]-piperidin-4-yl}-nicotinamide] gave an IC50 of 18 nM.
`COc1cnc(-c2cc(Cl)ccc2F)nc1Nc1ccncc1C(=O)NCC1CN(Cc2ccccc2)CCO1` (centres unmarked) [Compound 30, N-(4-Benzyl-morpholin-2-ylmethyl)-4-[2-(5-chloro-2-fluoro-phenyl)-5-methoxy-pyrimidin-4-ylamino)-nicotinamide] gave an IC50 of 2370 nM.
`COc1cnc(-c2cc(Cl)ccc2F)nc1Nc1ccncc1C(=O)NCCNCCOC1O[C@H](COC(C)=O)[C@@H](OC(C)=O)[C@H](OC(C)=O)[C@H]1OC(C)=O` (some centres unmarked) [Compound 142, Acetic acid 3,4,5-triacetoxy-6-(2-[2-({4-[2-(5-chloro-2-fluoro-phenyl)-5-methoxy-pyrimidin-4-ylamino]-pyridine-3-carbonyl]-amino)-ethylamino]-ethoxy}tetrahydro-pyran-2-ylmethyl ester] showed an IC50 of 10 nM.
`CNC(=O)[C@@H]1CCCN1CCCNC(=O)c1cnccc1Nc1nc(-c2cc(Cl)ccc2F)ncc1OC` [Compound 122, 4-[2-(5-Chloro-2-fluoro-phenyl)-5-methoxy-pyrimidin-4-ylamino]-N-[3-(2-methylcarbamoyl-pyrrolidin-1-yl)-propyl]-nicotinamide] was tested, and the IC50 was 53 nM.
In the case of `COc1cnc(-c2cc(Cl)ccc2F)nc1Nc1ccncc1C(=O)N1CCN(C)CC1` [Compound 118, {4-[2-(5-Chloro-2-fluoro-phenyl)-5-methoxy-pyrimidin-4-ylamino]-pyridin-3-yl}-(4-methyl-piperazin-1-yl)-methanone], the IC50 is reported as 6570 nM.
With `CCNC(=O)NCCCNC(=O)c1cnccc1Nc1nc(-c2cc(Cl)ccc2F)ncc1OC` [Compound 75] the IC50 was 110 nM.
For `O=C(NCCN1CCCC1)c1cnccc1Nc1nc(-c2cc(Cl)ccc2F)ncc1N1CCCC1` [Compound 26, 4-[2-(5-Chloro-2-fluoro-phenyl)-5-pyrrolidin-1-yl-pyrimidin-4-ylamino]-N-(2-pyrrolidin-1-yl-ethyl)-nicotinamide], the IC50 was 200 nM.
Work on `COc1cnc(-c2cc(Cl)ccc2F)nc1Nc1ccncc1C(=O)NCCNCCC1O[C@H](CO)[C@@H](O)[C@H](O)[C@@H]1O` (some centres unmarked) [Compound 151] yielded an IC50 of 4 nM.
With `COc1cnc(-c2cc(Cl)ccc2F)nc1Nc1ccncc1C(=O)NCCCNC(=O)Nc1ccccc1` [Compound 65, 4-[2-(5-Chloro-2-fluoro-phenyl)-5-methoxy-pyrimidin-4-ylamino]-N-[3-(3-phenyl-ureido)-propyl]-nicotinamide] the IC50 was 590 nM.
`CC(C)c1cnc(-c2cc(Cl)ccc2F)nc1Nc1ccncc1C(=O)N[C@H](CO)[C@@H](C)O` [Compound 84, 4-[2-(5-Chloro-2-fluoro-phenyl)-5-isopropyl-pyrimidin-4-ylamino]-N-(2-hydroxy-1-hydroxymethyl-propyl)-nicotinamide] gave an IC50 of 1730 nM.
Compound `COc1cnc(-c2cc(Cl)ccc2F)nc1Nc1ccncc1C(=O)NCCCN(C)C` [Compound 7, 4-[2-(5-Chloro-2-fluoro-phenyl)-5-methoxy-pyrimidin-4-ylamino]-N-(3-dimethylamino-propyl)-nicotinamide] has an IC50 of 30 nM.
In the case of `COc1cnc(-c2cc(Cl)ccc2F)nc1Nc1ccncc1C(=O)NCC(O)CN1CCOCC1` (centres unmarked) [Compound 73, 4-[2-(5-Chloro-2-fluoro-phenyl)-5-methoxy-pyrimidin-4-ylamino]-N-(2-hydroxy-3-morpholin-4-yl-propyl)-nicotinamide], the IC50 is reported as 360 nM.
Compound `COc1cnc(-c2cc(Cl)ccc2F)nc1Nc1ccncc1C(=O)NCC(F)F` [Compound 36, 4-[2-(5-Chloro-2-fluoro-phenyl)-5-methoxy-pyrimidin-4-ylamino]-N-(2,2-difluoro-ethyl)-nicotinamide] has an IC50 of 670 nM.
For `COc1cnc(-c2cc(Cl)ccc2F)nc1Nc1ccncc1C(=O)NCCCNC(=O)NC1CCCCC1` [Compound 64, 4-[2-(5-Chloro-2-fluoro-phenyl)-5-methoxy-pyrimidin-4-ylamino]-N-[3-(3-cyclohexyl-ureido)-propyl]-nicotinamide], the IC50 was 890 nM.
With `COc1cnc(-c2cc(Cl)ccc2F)nc1Nc1ccncc1C(=O)NCCCNCCC1O[C@H](COC(C)=O)[C@@H](OC(C)=O)[C@H](OC(C)=O)[C@H]1OC(C)=O` (some centres unmarked) [Compound 97, Acetic acid 3,4,5-triacetoxy-6-{2-[3-({4-[2-(5-chloro-2-fluoro-phenyl)-5-methoxy-pyrimidin-4-ylamino]-pyridine-3-carbonyl}-amino)-propylamino]-ethyl}-tetrahydro-pyran-2-ylmethyl ester] the IC50 was 90 nM.

Same assay, conditions: 10 uM ATP, 170 nM TGFβ R1, room temperature 20 minutes, read-out: IC50 for Kinase Inhibition
With `CC(C)c1cnc(-c2cc(Cl)ccc2F)nc1Nc1ccncc1C(=O)N[C@H]1CCC[C@@H]1O` [Compound 247, 4-[2-(5-Chloro-2-fluoro-phenyl)-5-isopropyl-pyrimidin-4-ylamino]-N-(2-hydroxy-cyclopentyl)-nicotinamide] the IC50 was 40 nM.
`COc1cnc(-c2cc(Cl)ccc2F)nc1Nc1ccncc1C(=O)NCCCN1CCC[C@@H]1C(N)=O` [Compound 166, N-[3-(2-Carbamoyl-pyrrolidin-1-yl)-propyl]-4-[2-(5-chloro-2-fluoro-phenyl)-5-methoxy-pyrimidin-4-ylamino]-nicotinamide] gave an IC50 of 5 nM.
With `COc1cnc(-c2cc(Cl)ccc2F)nc1Nc1ccncc1C(=O)N1CC[C@H](F)C1` [Compound 220, {4-[2-(5-Chloro-2-fluoro-phenyl)-5-methoxy-pyrimidin-4-ylamino]-pyridin-3-yl}-(3-fluoro-pyrrolidin-1-yl)-methanone] the IC50 was 249 nM.
`O=C(c1cnccc1Nc1nc(-c2cc(Cl)ccc2F)ncc1C1CCCC1)N1CCOCC1` [Compound 227, {4-[2-(5-Chloro-2-fluoro-phenyl)-5-cyclopentyl-pyrimidin-4-ylamino]-pyridin-3-yl}-morpholin-4-yl-methanone] showed an IC50 of 330 nM.
Work on `CC(C)c1cnc(-c2cc(Cl)ccc2F)nc1Nc1ccncc1C(=O)NC(CO)CO` [Compound 193, 4-[2-(5-Chloro-2-fluoro-phenyl)-5-isopropyl-pyrimidin-4-ylamino]-N-(2-hydroxy-1-hydroxymethyl-ethyl)-nicotinamide] yielded an IC50 of 27 nM.
`CC(C)c1cnc(-c2cc(Cl)ccc2F)nc1Nc1ccncc1C(=O)NC1CCC[C@@H]1OCc1ccccc1` (stereo in doubt) [Compound 223, N-(2-Benzyloxy-cyclopentyl)-4-[2-(5-chloro-2-fluoro-phenyl)-5-isopropyl-pyrimidin-4-ylamino]-nicotinamide] was tested, and the IC50 was 7140 nM.
For `COc1cnc(-c2cc(Cl)ccc2F)nc1Nc1cc[n+]([O-])cc1C(=O)NC[C@H](C)O` [Compound 197, 4-[2-(5-Chloro-2-fluoro-phenyl)-5-methoxy-pyrimidin-4-ylamino]-N-(2-hydroxy-propyl)-1-oxy-nicotinamide], the IC50 was 675 nM.
With `COc1cnc(-c2cc(Cl)ccc2F)nc1Nc1ccncc1C(=O)NC1CC1CO` (centres unmarked) [Compound 160, 4-[2-(5-Chloro-2-fluoro-phenyl)-5-methoxy-pyrimidin-4-ylamino]-N-(2-hydroxymethyl-cyclopropyl)-nicotinamide] the IC50 was 9 nM.
In the case of `CC(C)c1cnc(-c2cc(Cl)ccc2F)nc1Nc1ccncc1C(=O)N[C@@H]1CCC[C@H]1OCc1ccccc1` (stereo in doubt) [Compound 222, N-(2-Benzyloxy-cyclopentyl)-4-[2-(5-chloro-2-fluoro-phenyl)-5-isopropyl-pyrimidin-4-ylamino]-nicotinamide], the IC50 is reported as 7700 nM.
